Measured values reported in ChEMBL document CHEMBL3046405, “Knockdown of several components of cytochrome P450 enzyme systems by RNA interference enhances the susceptibility of Helicoverpa armigera to fenvalerate” (2012).

Tests used:
Type in all cases: functional
Helicoverpa armigera [1] = assay: Potency index, ratio of LD50 for fenvalerate-resistant Helicoverpa armigera HDFR third-instar larvae injected with TE buffer to LD50 for fenvalerate-resistant Helicoverpa armigera HDFR third-instar larvae injected with dsCYP6B7-313-1 dsRNA plus dsCyt-b5-4 dsRNA after 36 hr
Helicoverpa armigera [2] = assay: Insecticidal activity against fenvalerate-resistant Helicoverpa armigera HDFR third-instar larvae injected with dsCYP6B7-313-1 dsRNA plus dsCPR-403-1 dsRNA assessed as compound level per larva causing mortality after 48 hr
Helicoverpa armigera [3] = assay: Potency index, ratio of LD50 for fenvalerate-resistant Helicoverpa armigera HDFR third-instar larvae injected with TE buffer to LD50 for fenvalerate-resistant Helicoverpa armigera HDFR third-instar larvae injected with dsCYP6B7-313-1 dsRNA plus dsCPR-403-1 dsRNA and dsCyt-b5-4 dsRNA after 48 hr
Helicoverpa armigera [4] = assay: Insecticidal activity against fenvalerate-resistant Helicoverpa armigera HDFR third-instar larvae injected with dsCYP6B7-313-1 dsRNA plus dsCPR-403-1 dsRNA and dsCyt-b5-4 dsRNA assessed as compound level per larva causing mortality after 24 hr
Helicoverpa armigera [5] = assay: Insecticidal activity against fenvalerate-resistant Helicoverpa armigera HDFR third-instar larvae without dsRNA injection assessed as compound level per larva causing mortality after 24 hr
Helicoverpa armigera [6] = assay: Insecticidal activity against fenvalerate-resistant Helicoverpa armigera HDFR third-instar larvae injected with TE buffer assessed as compound level per larva causing mortality after 24 hr
Helicoverpa armigera [7] = assay: Insecticidal activity against fenvalerate-resistant Helicoverpa armigera HDFR third-instar larvae injected with dsCYP6B7-313-1 dsRNA plus dsCPR-403-1 dsRNA assessed as compound level per larva causing mortality after 12 hr
Helicoverpa armigera [8] = assay: Insecticidal activity against fenvalerate-resistant Helicoverpa armigera HDFR third-instar larvae injected with dsCYP6B7-313-1 dsRNA plus dsCPR-403-1 dsRNA and dsCyt-b5-4 dsRNA assessed as insect mortality at 4 to 16 ug/larva after 48 hr (fenvalerate alone control = 29.1 to 50.0%)
Helicoverpa armigera [9] = assay: Insecticidal activity against fenvalerate-resistant Helicoverpa armigera HDFR third-instar larvae injected with dsCYP6B7-313-1 dsRNA plus dsCPR-403-1 dsRNA assessed as compound level per larva causing mortality after 24 hr
Helicoverpa armigera [10] = assay: Insecticidal activity against fenvalerate-resistant Helicoverpa armigera HDFR third-instar larvae injected with TE buffer assessed as compound level per larva causing mortality after 48 hr
Helicoverpa armigera [11] = assay: Potency index, ratio of LD50 for fenvalerate-resistant Helicoverpa armigera HDFR third-instar larvae injected with TE buffer to LD50 for fenvalerate-resistant Helicoverpa armigera HDFR third-instar larvae injected with dsCYP6B7-313-1 dsRNA plus dsCPR-403-1 after 12 hr
Helicoverpa armigera [12] = assay: Potency index, ratio of LD50 for fenvalerate-resistant Helicoverpa armigera HDFR third-instar larvae injected with TE buffer to LD50 for fenvalerate-resistant Helicoverpa armigera HDFR third-instar larvae injected with dsCYP6B7-313-1 dsRNA plus dsCyt-b5-4 dsRNA after 24 hr
Helicoverpa armigera [13] = assay: Insecticidal activity against fenvalerate-resistant Helicoverpa armigera HDFR third-instar larvae injected with dsCYP6B7-313-1 dsRNA plus dsCPR-403-1 dsRNA and dsCyt-b5-4 dsRNA assessed as compound level per larva causing mortality after 12 hr
Helicoverpa armigera [14] = assay: Insecticidal activity against fenvalerate-resistant Helicoverpa armigera HDFR third-instar larvae injected with dsCYP6B7-313-1 dsRNA plus dsCyt-b5-4 dsRNA assessed as compound level per larva causing mortality after 36 hr
Helicoverpa armigera [15] = assay: Insecticidal activity against fenvalerate-resistant Helicoverpa armigera HDFR third-instar larvae without dsRNA injection assessed as compound level per larva causing mortality after 12 hr
Helicoverpa armigera [16] = assay: Potency index, ratio of LD50 for fenvalerate-resistant Helicoverpa armigera HDFR third-instar larvae injected with TE buffer to LD50 for fenvalerate-resistant Helicoverpa armigera HDFR third-instar larvae injected with dsCYP6B7-313-1 dsRNA after 12 hr
Helicoverpa armigera [17] = assay: Insecticidal activity against fenvalerate-resistant Helicoverpa armigera HDFR third-instar larvae injected with TE buffer assessed as compound level per larva causing mortality after 36 hr
Helicoverpa armigera [18] = assay: Insecticidal activity against fenvalerate-resistant Helicoverpa armigera HDFR third-instar larvae injected with TE buffer assessed as compound level per larva causing mortality after 12 hr
Helicoverpa armigera [19] = assay: Potency index, ratio of LD50 for fenvalerate-resistant Helicoverpa armigera HDFR third-instar larvae injected with TE buffer to LD50 for fenvalerate-resistant Helicoverpa armigera HDFR third-instar larvae injected with dsCYP6B7-313-1 dsRNA plus dsCyt-b5-4 dsRNA after 48 hr
Helicoverpa armigera [20] = assay: Insecticidal activity against fenvalerate-resistant Helicoverpa armigera HDFR third-instar larvae injected with dsCYP6B7-313-1 dsRNA assessed as compound level per larva causing mortality after 48 hr
Helicoverpa armigera [21] = assay: Potency index, ratio of LD50 for fenvalerate-resistant Helicoverpa armigera HDFR third-instar larvae injected with TE buffer to LD50 for fenvalerate-resistant Helicoverpa armigera HDFR third-instar larvae injected with dsCYP6B7-313-1 dsRNA plus dsCPR-403-1 dsRNA and dsCyt-b5-4 dsRNA after 12 hr
Helicoverpa armigera [22] = assay: Insecticidal activity against fenvalerate-resistant Helicoverpa armigera HDFR third-instar larvae injected with dsCYP6B7-313-1 dsRNA plus dsCyt-b5-4 dsRNA assessed as insect mortality at 4 to 16 ug/larva after 48 hr (fenvalerate alone control = 29.1 to 50.0%)
Helicoverpa armigera [23] = assay: Insecticidal activity against fenvalerate-resistant Helicoverpa armigera HDFR third-instar larvae injected with dsCYP6B7-313-1 dsRNA assessed as compound level per larva causing mortality after 12 hr
Helicoverpa armigera [24] = assay: Potency index, ratio of LD50 for fenvalerate-resistant Helicoverpa armigera HDFR third-instar larvae injected with TE buffer to LD50 for fenvalerate-resistant Helicoverpa armigera HDFR third-instar larvae injected with dsCYP6B7-313-1 dsRNA plus dsCPR-403-1 after 36 hr
Helicoverpa armigera [25] = assay: Insecticidal activity against fenvalerate-resistant Helicoverpa armigera HDFR third-instar larvae injected with dsCYP6B7-313-1 dsRNA plus dsCPR-403-1 dsRNA and dsCyt-b5-4 dsRNA assessed as compound level per larva causing mortality after 36 hr
Helicoverpa armigera [26] = assay: Potency index, ratio of LD50 for fenvalerate-resistant Helicoverpa armigera HDFR third-instar larvae injected with TE buffer to LD50 for fenvalerate-resistant Helicoverpa armigera HDFR third-instar larvae injected with dsCYP6B7-313-1 dsRNA plus dsCPR-403-1 dsRNA and dsCyt-b5-4 dsRNA after 36 hr
Helicoverpa armigera [27] = assay: Insecticidal activity against fenvalerate-resistant Helicoverpa armigera HDFR third-instar larvae injected with dsCYP6B7-313-1 dsRNA assessed as insect mortality at 4 to 16 ug/larva after 48 hr (fenvalerate alone control = 29.1 to 50.0%)
Helicoverpa armigera [28] = assay: Potency index, ratio of LD50 for fenvalerate-resistant Helicoverpa armigera HDFR third-instar larvae injected with TE buffer to LD50 for fenvalerate-resistant Helicoverpa armigera HDFR third-instar larvae injected with dsCYP6B7-313-1 dsRNA after 48 hr
Helicoverpa armigera [29] = assay: Potency index, ratio of LD50 for fenvalerate-resistant Helicoverpa armigera HDFR third-instar larvae injected with TE buffer to LD50 for fenvalerate-resistant Helicoverpa armigera HDFR third-instar larvae injected with dsCYP6B7-313-1 dsRNA plus dsCPR-403-1 after 24 hr
Helicoverpa armigera [30] = assay: Potency index, ratio of LD50 for fenvalerate-resistant Helicoverpa armigera HDFR third-instar larvae injected with TE buffer to LD50 for fenvalerate-resistant Helicoverpa armigera HDFR third-instar larvae injected with dsCYP6B7-313-1 dsRNA plus dsCyt-b5-4 dsRNA after 12 hr
Helicoverpa armigera [31] = assay: Potency index, ratio of LD50 for fenvalerate-resistant Helicoverpa armigera HDFR third-instar larvae injected with TE buffer to LD50 for fenvalerate-resistant Helicoverpa armigera HDFR third-instar larvae injected with dsCYP6B7-313-1 dsRNA after 24 hr
Helicoverpa armigera [32] = assay: Resistance index, ratio of LD50 for fenvalerate-resistant Helicoverpa armigera HDFR third-instar larvae to LD50 for fenvalerate-susceptible Helicoverpa armigera third-instar larvae
Helicoverpa armigera [33] = assay: Insecticidal activity against fenvalerate-resistant Helicoverpa armigera HDFR third-instar larvae injected with dsCYP6B7-313-1 dsRNA plus dsCyt-b5-4 dsRNA assessed as compound level per larva causing mortality after 24 hr
Helicoverpa armigera [34] = assay: Insecticidal activity against fenvalerate-resistant Helicoverpa armigera HDFR third-instar larvae injected with dsCYP6B7-313-1 dsRNA assessed as compound level per larva causing mortality after 24 hr
Helicoverpa armigera [35] = assay: Potency index, ratio of LD50 for fenvalerate-resistant Helicoverpa armigera HDFR third-instar larvae injected with TE buffer to LD50 for fenvalerate-resistant Helicoverpa armigera HDFR third-instar larvae injected with dsCYP6B7-313-1 dsRNA plus dsCPR-403-1 after 48 hr
Helicoverpa armigera [36] = assay: Insecticidal activity against fenvalerate-resistant Helicoverpa armigera HDFR third-instar larvae without dsRNA injection assessed as compound level per larva causing mortality after 48 hr
Helicoverpa armigera [37] = assay: Insecticidal activity against fenvalerate-resistant Helicoverpa armigera HDFR third-instar larvae assessed as compound level per larva causing mortality after 48 hr
Helicoverpa armigera [38] = assay: Insecticidal activity against fenvalerate-resistant Helicoverpa armigera HDFR third-instar larvae injected with dsCYP6B7-313-1 dsRNA plus dsCyt-b5-4 dsRNA assessed as compound level per larva causing mortality after 12 hr
Helicoverpa armigera [39] = assay: Potency index, ratio of LD50 for fenvalerate-resistant Helicoverpa armigera HDFR third-instar larvae injected with TE buffer to LD50 for fenvalerate-resistant Helicoverpa armigera HDFR third-instar larvae injected with dsCYP6B7-313-1 dsRNA plus dsCPR-403-1 dsRNA and dsCyt-b5-4 dsRNA after 24 hr
Helicoverpa armigera [40] = assay: Insecticidal activity against fenvalerate-resistant Helicoverpa armigera HDFR third-instar larvae injected with dsCYP6B7-313-1 dsRNA plus dsCPR-403-1 dsRNA assessed as insect mortality at 4 to 16 ug/larva after 48 hr (fenvalerate alone control = 29.1 to 50.0%)
Helicoverpa armigera [41] = assay: Insecticidal activity against fenvalerate-resistant Helicoverpa armigera HDFR third-instar larvae injected with dsCYP6B7-313-1 dsRNA plus dsCPR-403-1 dsRNA and dsCyt-b5-4 dsRNA assessed as compound level per larva causing mortality after 48 hr
Helicoverpa armigera [42] = assay: Insecticidal activity against fenvalerate-resistant Helicoverpa armigera HDFR third-instar larvae injected with dsCYP6B7-313-1 dsRNA plus dsCyt-b5-4 dsRNA assessed as compound level per larva causing mortality after 48 hr
Helicoverpa armigera [43] = assay: Insecticidal activity against fenvalerate-resistant Helicoverpa armigera HDFR third-instar larvae injected with dsCYP6B7-313-1 dsRNA plus dsCPR-403-1 dsRNA assessed as compound level per larva causing mortality after 36 hr
Helicoverpa armigera [44] = assay: Insecticidal activity against fenvalerate-resistant Helicoverpa armigera HDFR third-instar larvae injected with dsCYP6B7-313-1 dsRNA assessed as compound level per larva causing mortality after 36 hr
Helicoverpa armigera [45] = assay: Potency index, ratio of LD50 for fenvalerate-resistant Helicoverpa armigera HDFR third-instar larvae injected with TE buffer to LD50 for fenvalerate-resistant Helicoverpa armigera HDFR third-instar larvae injected with dsCYP6B7-313-1 dsRNA after 36 hr
Helicoverpa armigera [46] = assay: Insecticidal activity against fenvalerate-resistant Helicoverpa armigera HDFR third-instar larvae without dsRNA injection assessed as compound level per larva causing mortality after 36 hr
Helicoverpa armigera [47] = assay: Insecticidal activity against fenvalerate-susceptible Helicoverpa armigera third-instar larvae assessed as compound level per larva causing mortality after 48 hr

## CC(C)C(C(=O)OC(C#N)c1cccc(Oc2ccccc2)c1)c1ccc(Cl)cc1 (configuration not stated) [FENVALERATE]
Helicoverpa armigera [1]
  Ratio: 2.6
Helicoverpa armigera [2]
  LD50: 8.9 µg
Helicoverpa armigera [3]
  Ratio: 3.2
Helicoverpa armigera [4]
  LD50: 10.2 µg
Helicoverpa armigera [5]
  LD50: 35.7 µg
Helicoverpa armigera [6]
  LD50: 35.2 µg
Helicoverpa armigera [7]
  LD50: 16.8 µg
Helicoverpa armigera [8]
  mortality: 44.4%
Helicoverpa armigera [9]
  LD50: 12.3 µg
Helicoverpa armigera [10]
  LD50: 21.5 µg
Helicoverpa armigera [11]
  Ratio: 2.8
Helicoverpa armigera [12]
  Ratio: 2.4
Helicoverpa armigera [13]
  LD50: 12.6 µg
Helicoverpa armigera [14]
  LD50: 9.9 µg
Helicoverpa armigera [15]
  LD50: 48.8 µg
Helicoverpa armigera [16]
  Ratio: 2
Helicoverpa armigera [17]
  LD50: 25.6 µg
Helicoverpa armigera [18]
  LD50: 46.8 µg
Helicoverpa armigera [19]
  Ratio: 3.1
Helicoverpa armigera [20]
  LD50: 10.7 µg
Helicoverpa armigera [21]
  Ratio: 3.7
Helicoverpa armigera [22]
  mortality: 50%
Helicoverpa armigera [23]
  LD50: 23.9 µg
Helicoverpa armigera [24]
  Ratio: 2.9
Helicoverpa armigera [25]
  LD50: 8.6 µg
Helicoverpa armigera [26]
  Ratio: 3
Helicoverpa armigera [27]
  mortality: 38.8%
Helicoverpa armigera [28]
  Ratio: 2
Helicoverpa armigera [29]
  Ratio: 2.9
Helicoverpa armigera [30]
  Ratio: 2.5
Helicoverpa armigera [31]
  Ratio: 1.8
Helicoverpa armigera [32]
  Ratio: 164
Helicoverpa armigera [33]
  LD50: 14.5 µg
Helicoverpa armigera [34]
  LD50: 19.7 µg
Helicoverpa armigera [35]
  Ratio: 2.4
Helicoverpa armigera [36]
  LD50: 23.1 µg
Helicoverpa armigera [37]
  LD50: 16.13 µg
Helicoverpa armigera [38]
  LD50: 19 µg
Helicoverpa armigera [39]
  Ratio: 3.5
Helicoverpa armigera [40]
  mortality: 40.7%
Helicoverpa armigera [41]
  LD50: 6.7 µg
Helicoverpa armigera [42]
  LD50: 6.9 µg
Helicoverpa armigera [43]
  LD50: 8.9 µg
Helicoverpa armigera [44]
  LD50: 16.5 µg
Helicoverpa armigera [45]
  Ratio: 1.6
Helicoverpa armigera [46]
  LD50: 26.1 µg
Helicoverpa armigera [47]
  LD50: 0.0982 µg
